Results on 6 compounds are retold here after ChEMBL document CHEMBL4725410, “Novel Heteroaromatic Compounds as Vanin Inhibitors” (ACS Med Chem Lett, 2020).

A word on the IC50: it is the concentration needed to halve the response being measured.

This assay deals with T1, Pantetheinase (Homo sapiens, UniProt O95497).
T1 sequence (O95497 whole entry): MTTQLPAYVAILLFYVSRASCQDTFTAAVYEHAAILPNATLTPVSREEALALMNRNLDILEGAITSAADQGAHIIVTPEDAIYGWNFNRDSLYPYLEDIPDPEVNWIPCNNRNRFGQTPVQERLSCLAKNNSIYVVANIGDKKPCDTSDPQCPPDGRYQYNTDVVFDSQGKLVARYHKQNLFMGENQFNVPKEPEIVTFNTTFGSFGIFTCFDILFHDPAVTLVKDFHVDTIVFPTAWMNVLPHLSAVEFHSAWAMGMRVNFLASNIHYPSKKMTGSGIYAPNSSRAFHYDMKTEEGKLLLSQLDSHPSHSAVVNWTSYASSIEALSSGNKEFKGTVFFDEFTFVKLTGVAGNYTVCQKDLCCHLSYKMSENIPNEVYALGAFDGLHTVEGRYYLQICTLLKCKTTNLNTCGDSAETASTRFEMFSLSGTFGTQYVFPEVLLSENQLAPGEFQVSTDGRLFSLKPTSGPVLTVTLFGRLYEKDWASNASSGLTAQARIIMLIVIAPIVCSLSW
The assay is described as follows: Inhibition of human vanin-1 in whole blood. It is filed as tissue-based.
As for `CC(C)(C)Nc1ccc(C(=O)N2CC(C)(c3ccccn3)C2)cn1`, the IC50 was 2.7 nM.

In turn, `CN(C(=O)[C@@H]1CCCO1)[C@H]1CCN(C(=O)c2ccc(NC(C)(C)C)nc2)C1` came in with an IC50 of 2.7 nM.

On to `CC(=O)N(C)[C@H]1CCN(C(=O)c2ccc(NC(C)(C)CCO)nc2)C1`, for which the IC50 turned out to be 1.6 nM.

As for `CCC(C)(C)Nc1ccc(C(=O)N2CC[C@H](N(C)C(C)=O)C2)cn1`, it took 3.1 nM to reach half-maximal inhibition (IC50).

`CN(C(=O)C1CC(F)(F)C1)[C@H]1CCN(C(=O)c2ccc(NC(C)(C)C)nc2)C1` displayed an IC50 of 3.6 nM.

In the case of `CC(C)(C)Nc1ccc(C(=O)N2CC[C@H](N3CCOC3=O)C2)cn1`, the IC50 turned out to be 4 nM.
